From patent publication US8530650B2, “2, 5-diamino-substituted pyrido [4, 3-D] pyrimidines as autotaxin inhibitors against cancer” (MERCK PATENT GmbH, priority 2008, dated 2013)

Biological target: T1, recombinant autotaxin (Homo sapiens, UniProt Q13822)
T1 construct: made in house; host or cells: Hi5 insect cells (baculovirus)
Assay: Autotaxin assay (Amplex Red, LPC substrate)
Format: biochemical
Conditions: 75 μM LPC, Amplex Red fluorescence, ten 1:3 dilutions starting at 30 μM
Method in brief: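 Baculovirus (Hi5)-expressed autotaxin (16 ng) was preincubated with compound 30 min at 22° C., then reacted with 75 μM final egg LPC for 90 min at 37° C.; choline released was coupled via choline oxidase/peroxidase to Amplex Red, fluorescence read kinetically (ex 485/em 612 nm). IC50 from 10-point 1:3 dilutions from 30 μM, duplicates, normalized to 500 μM C14 LPA as 0%.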

| Compound | IC50 [µM] |
| --- | --- |
| Clc1ccccc1CNc1ncc2c(NCCc3cccnc3)nccc2n1 [Compound 147, N2-(2-Chloro-benzyl)-N5-(2-pyridin-3-yl-ethyl)-pyrido[4,3-d]pyrimidine-2,5-diamine] | < 30 |
| COc1ccc(Nc2nccc3nc(NCc4ccccc4)ncc23)cc1 [Compound 3, N2-Benzyl-N5-(4-methoxy-phenyl)-pyrido[4,3-d]pyrimidine-2,5-diamine] | < 30 |
| Cc1cc(NC(=O)C2CCCN(c3nccc4nc(NCc5ccccc5Cl)ncc34)C2)no1 (stereo not shown) [Compound 87, 1-[2-(2-Chloro-benzylamino)-pyrido[4,3-d]pyrimidin-5-yl]-piperidine-3-carboxylic acid (5-methyl-isoxazol-3-yl)-amide] | < 30 |
| CCCNC(=O)C1CCCN(c2nccc3nc(NCc4ccccc4Cl)ncc23)C1 (stereo not shown) [Compound 85, 1-[2-(2-Chloro-benzylamino)-pyrido[4,3-d]pyrimidin-5-yl]-piperidine-3-carboxylic acid propylamide] | < 30 |
| CCOc1ccccc1Nc1nccc2nc(NCc3ccccc3OC)ncc12 [Compound 32, N5-(2-Ethoxy-phenyl)-N2-(2-methoxy-benzyl)-pyrido[4,3-d]pyrimidine-2,5-diamine] | < 30 |
| COc1ccc(CNc2ncc3c(Nc4cc(OC)ccc4OC)nccc3n2)cc1 [Compound 51, N5-(2,5-Dimethoxy-phenyl)-N2-(4-methoxy-benzyl)-pyrido[4,3-d]pyrimidine-2,5-diamine] | < 30 |
| Fc1ccc(Nc2nccc3nc(NCc4ccc(Cl)cc4)ncc23)cc1 [Compound 42, N2-(4-Chloro-benzyl)-N5-(4-fluoro-phenyl)-pyrido[4,3-d]pyrimidine-2,5-diamine] | < 30 |
| Clc1ccccc1CNc1ncc2c(NCCN3CCCCC3)nccc2n1 [Compound 18, N2-(2-Chloro-benzyl)-N5-(2-piperidin-1-yl-ethyl)-pyrido[4,3-d]pyrimidine-2,5-diamine] | < 30 |
| COc1ccccc1CNc1ncc2c(Nc3ccc4c(c3)OCCO4)nccc2n1 [Compound 39, N5-(2,3-Dihydro-benzo[1,4]dioxin-6-yl)-N2-(2-methoxy-benzyl)-pyrido[4,3-d]pyrimidine-2,5-diamine] | < 30 |
| N[C@H]1CCN(CC(=O)N2CCN(c3nccc4nc(NCc5ccccc5Cl)ncc34)CC2)C1=O [Compound 133, (S)-3-Amino-1-(2-{4-[2-(2-chloro-benzylamino)-pyrido[4,3-d]pyrimidin-5-yl]-piperazin-1-yl}-2-oxo-ethyl)-pyrrolidin-2-one] | < 30 |

Results, then the compound that gave them:

| IC50 [µM] | Compound |
| --- | --- |
| < 30 | Fc1ccc(CNc2ncc3c(Nc4ccc(F)cc4)nccc3n2)cc1 [Compound 21, N2-(4-Fluoro-benzyl)-N5-(4-fluoro-phenyl)-pyrido[4,3-d]pyrimidine-2,5-diamine] |
| < 30 | Cc1ccccc1Nc1nccc2nc(NCc3ccc(F)cc3)ncc12 [Compound 22, N2-(4-Fluoro-benzyl)-N5-o-tolyl-pyrido[4,3-d]pyrimidine-2,5-diamine] |
| < 5 | CCN(CC)CCNC(=O)C1CCN(c2nccc3nc(NCc4ccccc4Cl)ncc23)CC1 [Compound 96, 1-[2-(2-Chloro-benzylamino)-pyrido[4,3-d]pyrimidin-5-yl]-piperidine-4-carboxylic acid (2-diethylamino-ethyl)-amide] |
| < 5 | O=C(O)C1CCN(c2nccc3nc(NCc4ccccc4Cl)ncc23)CC1 [Compound 127, 1-[2-(2-Chloro-benzylamino)-pyrido[4,3-d]pyrimidin-5-yl]-piperidine-4-carboxylic acid] |
| < 10 | CCOCCCNC(=O)C1CCCN(c2nccc3nc(NCc4ccccc4Cl)ncc23)C1 (stereo not shown) [Compound 88, 1-[2-(2-Chloro-benzylamino)-pyrido[4,3-d]pyrimidin-5-yl]-piperidine-3-carboxylic acid (3-ethoxy-propyl)-amide] |
| < 10 | CCOC(=O)CCNC(=O)C1CCCN(c2nccc3nc(NCc4ccccc4Cl)ncc23)C1 (stereo not shown) [Compound 92, 3-({1-[2-(2-Chloro-benzylamino)-pyrido[4,3-d]pyrimidin-5-yl]-piperidine-3-carbonyl}-amino)-propionic acid ethyl ester] |
